Laboratory results as given in publication PMC10674894 (Viruses, 2023).
“And” between values parts separate entries of the source, which are not always exact repeats. Equal values may be shown once. Read-outs that look alike come from different tables or passages of the source.

Legend:
[1] = Cytotoxicity MTT assay in Vero cells (MNTD, CC50); format: cell-based, African green monkey; settings: African green monkey
[2] = system: Vero cells; experiment: Cytotoxicity MTT assay in Vero cells (MNTD, CC50); format: cell-based, African green monkey
[3] = system: CHIKV-E2 protein; experiment: Western blot of CHIKV E2 protein; format: cell-based, chikungunya virus; settings: 18 hpi, compared to virus control
[4] = system: CHIKV; experiment: Cytopathic effect inhibition and cell viability dose-response assay; format: cell-based, chikungunya virus
[5] = system: CHIKV; experiment: Immunofluorescence assay, CHIKV E2 mAb; format: cell-based, chikungunya virus
[6] = system: CHIKV; experiment: Plaque assay, CHIKV; format: cell-based, chikungunya virus; settings: 300 μM, MOI 0.1
[7] = system: RRV T48 strain; experiment: Plaque assay, RRV; format: cell-based, Ross River virus; settings: 300 µM; for RRV titer: MOI 0.1; for percent reduction in virus titer: with respect to virus control
[8] = system: CHIKV; experiment: Mode of inhibition (time of addition), MTT cell viability; format: cell-based, chikungunya virus; settings: for viability at 300 µM: Chikungunya virus
[9] = system: RRV T48 strain; experiment: Immunofluorescence and MTT cell viability assays, RRV; format: cell-based, Ross River virus; settings: 300 µM, 36 hpi
[10] = system: CHIKV DRDE-07; experiment: In vitro screening against CHIKV (CPE inhibition and MTT cell viability); format: cell-based, chikungunya virus; settings: Table S1, CHIKV-infected Vero cells; for CPE: arbitrary score of cytopathic effect at >48 hpi; for % Cell viability: 72 hpi, MTT assay

## Nc1nc(N)c2cc(F)ccc2n1 [DCR 137, 6-fluoro-quinazoline-2,4-diamine]
[1]; Vero cells, MTT
  CC50 at 72 h: > 1100 µM
[1]; uninfected Vero cells at MNTD, read-out: cell viability at MNTD
  viability at 72 h: ~90%
[2]; Table S1, Vero cells
  MNTD: 300 µM
[2]; Vero cells
  MNTD value: > 300 μM and ~ 312 μM
[2]; Vero cells, 312.5 µM, 48 hpi, microscopy
  cytotoxicity (cell morphology): No significant cytotoxicity
[2]; maximum nontoxic dose in Vero cells, MTT
  MNTD: 300 µM
[3]
  CHIKV-E2 protein expression: significant decrease
[4]; 150 and 300 µM, CHIKV-infected Vero cells
  cytopathic effect (microscopy): delayed and dose-dependent CPE
[4]; Chikungunya virus, Vero, CHIKV replication in Vero cells, post-treatment, MTT at 48 hpi
  EC50: ~37 µM
[5]; 300 µM, CHIKV MOI 0.1, 36 hpi
  viral fluorescence (immunofluorescence): complete abrogation of viral fluorescence
[5]; CHIKV, immunofluorescence, ribavirin positive control
  protection compared to ribavirin: higher protection
[6]; 24 hpi, virus control 2.8 × 10^6
  CHIKV titer: 1.8 × 10^2 PFU/mL
[6]; 48 hpi, virus control 9.1 × 10^8
  CHIKV titer: 1.9 × 10^5 PFU/mL
[7]; 24 hpi, untreated 3.0 × 10^6
  RRV titer: 1.1 × 10^2 PFU/mL
[7]; 24 hpi
  percent reduction in virus titer: 99.99%
[7]; 48 hpi, untreated 1.2 × 10^8
  RRV titer: 1.7 × 10^5 PFU/mL
[7]; 48 hpi
  percent reduction in virus titer: 99.85%
[8]; 2 h, read-out: cell viability, post-treatment
  viability at 300 µM: > 95%
[8]; read-out: cell viability, pre-treatment
  viability at 300 µM: 15%
[8]; read-out: cell viability, simultaneous treatment
  viability at 300 µM: 29%
[8]; pre-treatment 24 h or simultaneous 1 h, CHIKV MOI 1
  effect of pre-treatment or simultaneous treatment on viral infection: no inhibitory effects
[9]
  green fluorescence (RRV immunofluorescence): barely detectable
[10]
  CPE: + (<30%)

## CCOc1cc(/C=N/NC(=O)c2cccnc2)ccc1O [DCR18, (E)-N'-(3-ethoxy-4-hydroxybenzylidene)nicotinohydrazide]
[2]; Table S1, Vero cells
  MNTD: 31.25 µM
[10]
  % Cell viability: 15.39%
  CPE: ++++ (>60% (++++))

## O=C(c1cccnc1)n1nc(-c2ccc(O)cc2)cc1-c1cccc([N+](=O)[O-])c1 [DCR63, 4-[5-(3-nitrophenyl)-1-(pyridine-3-carbonyl)-1H-pyrazol-3-yl]phenol]
[2]; Table S1, Vero cells
  MNTD: 31.25 µM
[10]
  % Cell viability: -4.2%
  CPE: ++++ (>60% (++++))

## C=C(C)CCOC(=O)C1=C(C)NC(=O)NC1c1ccc(OC)cc1 (centres unmarked) [DCR103, 3-methylbut-3-en-1-yl 4-(4-methoxyphenyl)-6-methyl-2-oxo-1,2,3,4-tetrahydropyrimidine-5-carboxylate]
[2]; Table S1, Vero cells
  MNTD: 250 µM
[10]
  % Cell viability: 21.11%
  CPE: ++++ (>60% (++++))

## O=C(N/N=C/c1ccccc1[N+](=O)[O-])c1ccncc1 [DCR35, (E)-N'-(2-nitrobenzylidene)isonicotinohydrazide]
[2]; Table S1, Vero cells
  MNTD: 62.5 µM
[10]
  % Cell viability: 9.84%
  CPE: ++++ (>60% (++++))

## O=C1NC(c2ccc(C(F)(F)F)cc2)c2c(ccc3ccccc23)O1 (centres unmarked) [DCR70, 1-[4-(trifluoromethyl)phenyl]-1H,2H,3H-naphtho[1,2-e][1,3]oxazin-3-one]
[2]; Table S1, Vero cells
  MNTD: 45.44 µM
[10]
  % Cell viability: 10.59%
  CPE: ++++ (>60% (++++))

## Cc1ccc(C2C3=C(CC(C)(C)CC3=O)OC3=C2C(=O)CC(C)(C)C3)cc1 [DCR127, 3,3,6,6‐tetramethyl‐9‐(4‐methylphenyl)‐2,3,4,5,6,7,8,9‐octahydro‐1H‐xanthene‐1,8‐dione]
[2]; Table S1, Vero cells
  MNTD: 125 µM
[10]
  % Cell viability: 10.21%
  CPE: ++++ (>60% (++++))

## C#CCOC(=O)C1=C(C)NC(=O)NC1c1cccc(F)c1 (centres unmarked) [DCR95, prop-2-yn-1-yl 4-(3-fluorophenyl)-6-methyl-2-oxo-1,2,3,4-tetrahydropyrimidine-5-carboxylate]
[2]; Table S1, Vero cells
  MNTD: 433.62 µM
[10]
  % Cell viability: 11.54%
  CPE: ++++ (>60% (++++))

## CC1CN(c2ccccc2C#N)CC(C)N1 (centres unmarked) [DCR142, 2-(3,5-Dimethyl-piperazin-1-yl)-benzonitrile]
[2]; Table S1, Vero cells
  MNTD: 125 µM
[10]
  % Cell viability: 13.08%
  CPE: ++++ (>60% (++++))

## O=C(N/N=C/c1ccc(Cl)cc1)c1ccncc1 [DCR40, (E)-N'-(4-chlorobenzylidene)isonicotinohydrazide]
[2]; Table S1, Vero cells
  MNTD: 31.25 µM
[10]
  % Cell viability: 5.23%
  CPE: ++++ (>60% (++++))

## COc1cccc(N2CCCCC2)c1C#N [DCR143, 2-Methoxy-6-piperidin-1-yl-benzonitrile]
[2]; Table S1, Vero cells
  MNTD: 125 µM
[10]
  % Cell viability: 17.42%
  CPE: ++++ (>60% (++++))

## COc1ccc(C2NC(=O)NC(C)=C2C(=O)OCCC(C)C)cc1 (centres unmarked) [DCR96, 3-methylbutyl 4-(4-methoxyphenyl)-6-methyl-2-oxo-1,2,3,4-tetrahydropyrimidine-5-carboxylate]
[2]; Table S1, Vero cells
  MNTD: 376.06 µM
[10]
  % Cell viability: 11.71%
  CPE: ++++ (>60% (++++))

## C#CCOC(=O)C1=C(C)NC(=O)NC1c1ccc(OC)cc1 (centres unmarked) [DCR86, prop-2-yn-1-yl 4-(4-methoxyphenyl)-6-methyl-2-oxo-1,2,3,4-tetrahydropyrimidine-5-carboxylate]
[2]; Table S1, Vero cells
  MNTD: 208.12 µM
[10]
  % Cell viability: 10.59%
  CPE: ++++ (>60% (++++))

## C/C(=N\NC(=O)c1cccnc1)c1ccccc1N [DCR46, (E)-2-(1-(2-nicotinoylhydrazono)ethyl)benzenaminium]
[2]; Table S1, Vero cells
  MNTD: 31.25 µM
[10]
  % Cell viability: 27.31%
  CPE: ++++ (>60% (++++))

## CC1=C(C(=O)OCC[N+](C)(C)C)C(c2ccc(Cl)cc2)NC(=O)N1 (centres unmarked) [DCR106, 2-({[4-(4-chlorophenyl)-6-methyl-2-oxo-1,2,3,4-tetrahydropyrimidin-5-yl]carbonyl}oxy)-N,N,N-trimethylethanaminium]
[2]; Table S1, Vero cells
  MNTD: 62.5 µM
[10]
  % Cell viability: 3.33%
  CPE: ++++ (>60% (++++))

## CC1=C(C(=O)OCCN(C)C)C(c2ccc([N+](=O)[O-])cc2)NC(=O)N1 (centres unmarked) [DCR73, 2-(dimethylamino)ethyl 6-methyl-4-(4-nitrophenyl)-2-oxo-1,2,3,4-tetrahydropyrimidine-5-carboxylate]
[2]; Table S1, Vero cells
  MNTD: 31.25 µM
[10]
  % Cell viability: 24.54%
  CPE: ++++ (>60% (++++))

## C=CCOC(=O)C1=C(C)NC(=O)NC1c1ccc(OC)cc1 (centres unmarked) [DCR98, prop-2-en-1-yl 4-(4-methoxyphenyl)-6-methyl-2-oxo-1,2,3,4-tetrahydropyrimidine-5-carboxylate]
[2]; Table S1, Vero cells
  MNTD: 413.46 µM
[10]
  % Cell viability: 12.66%
  CPE: ++++ (>60% (++++))

## Cc1ccc(-c2cc(-c3ccc(O)cc3)nn2C(=O)c2cccnc2)cc1 [DCR56, 4-[5-(4-methylphenyl)-1-(pyridine-3-carbonyl)-1H-pyrazol-3-yl]phenol]
[2]; Table S1, Vero cells
  MNTD: 31.25 µM
[10]
  % Cell viability: 24.2%
  CPE: ++++ (>60% (++++))

## CC(=O)Cc1noc(-c2ccc(Br)cc2)n1 [DCR85, 1-[5-(4-bromophenyl)-1,2,4-oxadiazol-3-yl]propan-2-one]
[2]; Table S1, Vero cells
  MNTD: 222.34 µM
[10]
  % Cell viability: 10.38%
  CPE: ++++ (>60% (++++))

## C/C(=N\NC(=O)c1ccncc1)c1ccccc1O [DCR44, (E)-N'-(1-(2-hydroxyphenyl)ethylidene)isonicotinohydrazide]
[2]; Table S1, Vero cells
  MNTD: 31.25 µM
[10]
  % Cell viability: 18.88%
  CPE: ++++ (>60% (++++))

## Cc1ccc(/C=N/NC(=O)c2ccncc2)cc1 [DCR31, (E)-N'-(4-methylbenzylidene)isonicotinohydrazide]
[2]; Table S1, Vero cells
  MNTD: 62.5 µM
[10]
  % Cell viability: 1.03%
  CPE: ++++ (>60% (++++))

## COc1cc(/C=N/NC(=O)c2ccncc2)cc(OC)c1OC [DCR42, (E)-N'-(3,4,5-trimethoxybenzylidene)isonicotinohydrazide]
[2]; Table S1, Vero cells
  MNTD: 31.25 µM
[10]
  % Cell viability: 12.22%
  CPE: ++++ (>60% (++++))

## N#Cc1ccccc1N1CCOCC1 [DCR146, 2-Morpholin-4-yl-benzonitrile]
[2]; Table S1, Vero cells
  MNTD: 250 µM
[10]
  % Cell viability: -3.98%
  CPE: ++++ (>60% (++++))

## CC(=O)Cc1noc(C(c2ccccc2)c2ccccc2)n1 [DCR79, 1-[5-(diphenylmethyl)-1,2,4-oxadiazol-3-yl]propan-2-one]
[2]; Table S1, Vero cells
  MNTD: 125 µM
[10]
  % Cell viability: 16.42%
  CPE: ++++ (>60% (++++))

## CC1(C)CC(=O)C2=C(C1)OC1=C(C(=O)CC(C)(C)C1)C2c1cccc(O)c1 [DCR123, 9‐(3‐hydroxyphenyl)‐3,3,6,6‐tetramethyl‐2,3,4,5,6,7,8,9‐octahydro‐1H‐xanthene‐1,8‐dione]
[2]; Table S1, Vero cells
  MNTD: 125 µM
[10]
  % Cell viability: 12.01%
  CPE: ++++ (>60% (++++))

## C#CCOC(=O)C1=C(C)NC(=O)NC1c1cccc(Cl)c1 (centres unmarked) [DCR89, prop-2-yn-1-yl 4-(3-chlorophenyl)-6-methyl-2-oxo-1,2,3,4-tetrahydropyrimidine-5-carboxylate]
[2]; Table S1, Vero cells
  MNTD: 205.1 µM
[10]
  % Cell viability: 10.94%
  CPE: ++++ (>60% (++++))
